Assay results as given in publication PMC8000041, “New Insights into the Metabolism of the Flavanones Eriocitrin and Hesperidin: A Comparative Human Pharmacokinetic Study” (Antioxidants, 2021).
Read-outs that look alike come from different tables or passages of the source.

How the values were obtained:
[1] = Plasma metabolites and pharmacokinetics after single intake of lemon or orange extract (UPLC-ESI-QTOF-MS, non-compartmental analysis); assay type: in vivo, human; details: for Occurrence Plasma LE (number of volunteers in whom the metabolite was detected): after consuming lemon extract; for Occurrence Plasma LE (number of volunteers in whom the metabolite was detected) / Occurrence Plasma OE (number of volunteers in whom the metabolite was detected): n = 16 volunteers; for Occurrence Plasma OE (number of volunteers in whom the metabolite was detected): after consuming orange extract; for Tmax / Cmax / AUC(0-t): mean ± SD; for AUC(0-t): read-out: AUC0-t
Description: Secondary endpoints involved the evaluation of post-prandial changes in several biomarkers dealing with metabolism, inflammation, and oxidative stress after a high-fat-high-sugars meal. The design was a randomized pharmacokinetic, double-blind, crossover, single-dose trial consisted of 2 test-phases. The volunteers were randomly allocated into two groups using a computerized random number list. Each group consumed one of the citrus extracts by following a test-phase that lasted for 1 day for blood sampling and urine collection, a 2-week washout period between each test phase, and crossover before consuming the other extract. The volunteers were instructed to avoid the consumption of flavanone-containing products, from a list provided by the researchers, for 1 week before the study and during the wash-out phase (citrus fruit juices, tomatoes, tomato-based sauces (like ‘ketchup’), peppers, almonds, etc.). […] The 3 capsules provided a total of 1.95 g orange extract, containing 260 mg hesperidin, and 3.1 g lemon extract, containing 260 mg eriocitrin. […] Plasma samples were obtained by centrifugation of peripheral venous blood at 14,000× g for 15 min at 4 °C and immediately frozen at −80 °C. Glucose, total cholesterol, HDL-cholesterol, LDL-cholesterol, triglycerides, insulin, homeostatic model assessment insulin resistance (HOMA-IR), gamma-glutamyl transferase (GGT), and alanine aminotransferase (ALT) were determined as previously reported. […] A previously validated method for analyzing phenolic metabolites in biological samples, including flavanone-derived metabolites, was used. […] After centrifugation at 14,000× g for 10 min at 4 °C, the supernatant was evaporated in a speed vacuum concentrator. Finally, samples were re-suspended in 100 µL of methanol, filtered through a 0.22 µm cellulose filters before analysis by UPLC- ESI-QTOF-MS. A targeted screening strategy was applied to identify metabolites that could be present after consuming the citrus extracts. Twenty-eight possible compounds were browsed in all the samples. The list of compounds included the polyphenols present in the extracts, with particular focus on the flavanone rutinosides hesperidin and eriocitrin, their respective aglycones hesperetin, and eriodictyol, as well as their derived phase-II conjugates (glucuronides, sulfates, sulfoglucuronides, etc.). The exact mass of each proposed compound was extracted using an extraction window of 0.01 m/z. The metabolites hesperetin 7-O-glucuronide, hesperetin 3′-O-glucuronide, hesperetin 3-O-sulfate, naringenin 4′-O-glucuronide, and naringenin 7′-O-glucuronide were quantified with their corresponding standards. […] The parent phenolic compounds were quantified with their corresponding standards. In the case of some relevant conjugated metabolites, which standards were not available (eriodictyol and homoeriodictyol conjugates), their quantification was achieved by using relative response factors (RRFs) as previously described. Briefly, RRFs are useful to check the different responses of metabolites in the mass spectrometer vs. their UV signal. While the ionization response of free vs. conjugated forms is usually very different, their UV signal response is quite similar. To this purpose, we injected in a HPLC-DAD-ESI-Q (MS) the plasma samples (n = 5) with the highest concentrations of those conjugated metabolites. Concentrations were calculated by integrating the area from their corresponding UV peaks and compared with the UV peak area of a known concentration of their corresponding available parent compounds (eriodictyol and homoeriodictyol). The concentrations calculated were used to compare the MS response for each conjugated-aglycone pair. Statistical analyses were carried out using the SPSS Software, version 23.0 (SPSS Inc., Chicago, IL, USA). Data are expressed as mean ± SD. The empirical distribution of data with the normality assumption was tested with the Shapiro-Wilk test. […]

[2] = Urinary excretion of flavanone-derived metabolites after single intake of lemon or orange extract (UPLC-ESI-QTOF-MS); assay type: in vivo, human; details: for Urinary excretion F1: urine fraction 0-4 h; for Urinary excretion F1 / Urinary excretion Total F / Urinary excretion F2 / Urinary excretion F3 / Urinary excretion F4: mean ± SD; for Urinary excretion Total F: sum of fractions F1-F4 (24 h); for Urinary excretion F2: urine fraction 4-8 h; for Urinary excretion F3: urine fraction 8-10 h; for Urinary excretion F4: urine fraction 10-24 h; for Occurrence Urine LE (number of volunteers in whom the metabolite was detected): after consuming lemon extract; for Occurrence Urine LE (number of volunteers in whom the metabolite was detected) / Occurrence Urine OE (number of volunteers in whom the metabolite was detected): n = 16 volunteers; for Occurrence Urine OE (number of volunteers in whom the metabolite was detected): after consuming orange extract
Description: Secondary endpoints involved the evaluation of post-prandial changes in several biomarkers dealing with metabolism, inflammation, and oxidative stress after a high-fat-high-sugars meal. The design was a randomized pharmacokinetic, double-blind, crossover, single-dose trial consisted of 2 test-phases. The volunteers were randomly allocated into two groups using a computerized random number list. Each group consumed one of the citrus extracts by following a test-phase that lasted for 1 day for blood sampling and urine collection, a 2-week washout period between each test phase, and crossover before consuming the other extract. The volunteers were instructed to avoid the consumption of flavanone-containing products, from a list provided by the researchers, for 1 week before the study and during the wash-out phase (citrus fruit juices, tomatoes, tomato-based sauces (like ‘ketchup’), peppers, almonds, etc.). […] The 3 capsules provided a total of 1.95 g orange extract, containing 260 mg hesperidin, and 3.1 g lemon extract, containing 260 mg eriocitrin. […] Untreated urine samples were aliquoted and frozen at −80 °C for up to 4 weeks until analyses, avoiding freeze-thaw cycles to avoid metabolites’ deconjugation. Moreover, three measurements of blood pressure and heart rate were taken before each time-point of blood withdrawal. […] A previously validated method for analyzing phenolic metabolites in biological samples, including flavanone-derived metabolites, was used. […] After centrifugation at 14,000× g for 10 min at 4 °C, the supernatant was evaporated in a speed vacuum concentrator. Finally, samples were re-suspended in 100 µL of methanol, filtered through a 0.22 µm cellulose filters before analysis by UPLC- ESI-QTOF-MS. […] A targeted screening strategy was applied to identify metabolites that could be present after consuming the citrus extracts. Twenty-eight possible compounds were browsed in all the samples. The list of compounds included the polyphenols present in the extracts, with particular focus on the flavanone rutinosides hesperidin and eriocitrin, their respective aglycones hesperetin, and eriodictyol, as well as their derived phase-II conjugates (glucuronides, sulfates, sulfoglucuronides, etc.). The exact mass of each proposed compound was extracted using an extraction window of 0.01 m/z. The metabolites hesperetin 7-O-glucuronide, hesperetin 3′-O-glucuronide, hesperetin 3-O-sulfate, naringenin 4′-O-glucuronide, and naringenin 7′-O-glucuronide were quantified with their corresponding standards. […] The parent phenolic compounds were quantified with their corresponding standards. In the case of some relevant conjugated metabolites, which standards were not available (eriodictyol and homoeriodictyol conjugates), their quantification was achieved by using relative response factors (RRFs) as previously described. Briefly, RRFs are useful to check the different responses of metabolites in the mass spectrometer vs. their UV signal. While the ionization response of free vs. conjugated forms is usually very different, their UV signal response is quite similar. To this purpose, we injected in a HPLC-DAD-ESI-Q (MS) the plasma samples (n = 5) with the highest concentrations of those conjugated metabolites. Concentrations were calculated by integrating the area from their corresponding UV peaks and compared with the UV peak area of a known concentration of their corresponding available parent compounds (eriodictyol and homoeriodictyol). The concentrations calculated were used to compare the MS response for each conjugated-aglycone pair.

[3] = human, oral, 3.1 g, after lemon extract
[4] = human, oral, 3.1 g, after lemon extract, read-out: Tmax
[5] = lemon extract (3.1 g, 260 mg eriocitrin)
[6] = orange extract (1.95 g, 260 mg hesperidin)
[7] = human, oral, 1.95 g, after orange (hesperidin) extract

## O=C1CC(c2ccc(O)c(O)c2)Oc2cc(OC3OC(C(=O)O)C(O)C(O)C3O)cc(O)c21 (stereo not drawn) [M1, Eriodictyol glucuronide-1]
[1]
  Occurrence Plasma LE (number of volunteers in whom the metabolite was detected): 16
  Occurrence Plasma OE (number of volunteers in whom the metabolite was detected): 3
[1]; after lemon extract
  Tmax: 5.9 ± 2.4 h
[1]; [3]
  Cmax: 104 ± 85.8 nM
  AUC(0-t): 0.283 ± 0.271 µM·h
[1]; [4]
  Tmax: 6 h
[2]; [5]
  Urinary excretion F1: 3.2 ± 5.9 µg/mg creatinine
[2]; lemon extract
  Urinary excretion Total F: 18.0 ± 28.4 µg/mg creatinine
  Urinary excretion F2: 9.6 ± 15.5 µg/mg creatinine
  Urinary excretion F3: 4.5 ± 6.2 µg/mg creatinine
  Urinary excretion F4: 0.7 ± 0.7 µg/mg creatinine
[2]; orange extract
  Urinary excretion Total F: 0.6 ± 0.4 µg/mg creatinine
  Urinary excretion F2: 0.4 ± 0.3 µg/mg creatinine
  Urinary excretion F3: 0.1 ± 0.1 µg/mg creatinine
  Urinary excretion F4: 0.05 ± 0.05 µg/mg creatinine
[2]
  Occurrence Urine LE (number of volunteers in whom the metabolite was detected): 16
  Occurrence Urine OE (number of volunteers in whom the metabolite was detected): 5

## O=C1CC(c2ccc(O)c(OC3OC(C(=O)O)C(O)C(O)C3O)c2)Oc2cc(O)cc(O)c21 (stereo not drawn) [M2, Eriodictyol glucuronide-2]
[1]
  Occurrence Plasma LE (number of volunteers in whom the metabolite was detected): 16
  Occurrence Plasma OE (number of volunteers in whom the metabolite was detected): 7
[1]; after lemon extract
  Tmax: 5.9 ± 2.4 h
[1]; [3]
  Cmax: 871 ± 868 nM
  AUC(0-t): 3.22 ± 4.12 µM·h
[1]; [4]
  Tmax: 6 h
[2]; [5]
  Urinary excretion F1: 6.4 ± 11.0 µg/mg creatinine
[2]; lemon extract
  Urinary excretion Total F: 46.6 ± 53.6 µg/mg creatinine
  Urinary excretion F2: 18.0 ± 17.2 µg/mg creatinine
  Urinary excretion F3: 18.1 ± 19.7 µg/mg creatinine
  Urinary excretion F4: 4.2 ± 5.7 µg/mg creatinine
[2]; [6]
  Urinary excretion F1: 0.1 ± 0.1 µg/mg creatinine
[2]; orange extract
  Urinary excretion Total F: 2.5 ± 4.9 µg/mg creatinine
  Urinary excretion F2: 0.5 ± 0.8 µg/mg creatinine
  Urinary excretion F3: 0.5 ± 0.6 µg/mg creatinine
  Urinary excretion F4: 1.4 ± 3.4 µg/mg creatinine
[2]
  Occurrence Urine LE (number of volunteers in whom the metabolite was detected): 16
  Occurrence Urine OE (number of volunteers in whom the metabolite was detected): 10

## O=C1CC(c2ccc(O)cc2)Oc2cc(OC3OC(C(=O)O)C(O)C(O)C3O)cc(O)c21 (stereo not drawn) [M3, Naringenin 7-O-glucuronide]
[1]
  Occurrence Plasma LE (number of volunteers in whom the metabolite was detected): 16
  Occurrence Plasma OE (number of volunteers in whom the metabolite was detected): 14
[1]; after lemon extract
  Tmax: 5.4 ± 2.5 h
[1]; after orange (hesperidin) extract
  Tmax: 7.3 ± 2.2 h
[1]; [7]
  Cmax: 4.7 ± 3.6 nM
  AUC(0-t): 0.0188 ± 0.019 µM·h
[1]; human, oral, 1.95 g, after orange (hesperidin) extract, read-out: Tmax
  Tmax: 7.5 h
[1]; [3]
  Cmax: 56.7 ± 44.2 nM
  AUC(0-t): 0.203 ± 0.187 µM·h
[1]; [4]
  Tmax: 5.5 h
[2]; [5]
  Urinary excretion F1: 1.0 ± 0.7 µg/mg creatinine
[2]; lemon extract
  Urinary excretion Total F: 5.7 ± 6.9 µg/mg creatinine
  Urinary excretion F2: 2.6 ± 4.0 µg/mg creatinine
  Urinary excretion F3: 1.7 ± 1.9 µg/mg creatinine
  Urinary excretion F4: 0.3 ± 0.3 µg/mg creatinine
[2]; [6]
  Urinary excretion F1: 0.1 ± 0.1 µg/mg creatinine
[2]; orange extract
  Urinary excretion Total F: 0.7 ± 1.5 µg/mg creatinine
  Urinary excretion F2: 0.2 ± 0.6 µg/mg creatinine
  Urinary excretion F3: 0.2 ± 0.2 µg/mg creatinine
  Urinary excretion F4: 0.2 ± 0.3 µg/mg creatinine
[2]
  Occurrence Urine LE (number of volunteers in whom the metabolite was detected): 16
  Occurrence Urine OE (number of volunteers in whom the metabolite was detected): 16

## O=C1CC(c2ccc(OC3OC(C(=O)O)C(O)C(O)C3O)c(O)c2)Oc2cc(O)cc(O)c21 (stereo not drawn) [M4, Eriodictyol glucuronide-3]
[1]
  Occurrence Plasma LE (number of volunteers in whom the metabolite was detected): 16
  Occurrence Plasma OE (number of volunteers in whom the metabolite was detected): 7
[1]; after lemon extract
  Tmax: 5.9 ± 2.6 h
[1]; [3]
  Cmax: 639 ± 802 nM
  AUC(0-t): 2.29 ± 3.49 µM·h
[1]; [4]
  Tmax: 6 h
[2]; [5]
  Urinary excretion F1: 9.4 ± 16.9 µg/mg creatinine
[2]; lemon extract
  Urinary excretion Total F: 75.1 ± 128 µg/mg creatinine
  Urinary excretion F2: 33.8 ± 64.1 µg/mg creatinine
  Urinary excretion F3: 27.7 ± 40.1 µg/mg creatinine
  Urinary excretion F4: 4.3 ± 6.4 µg/mg creatinine
[2]; [6]
  Urinary excretion F1: 0.1 ± 0.2 µg/mg creatinine
[2]; orange extract
  Urinary excretion Total F: 3.4 ± 6.2 µg/mg creatinine
  Urinary excretion F2: 0.5 ± 0.9 µg/mg creatinine
  Urinary excretion F3: 0.7 ± 0.7 µg/mg creatinine
  Urinary excretion F4: 2.1 ± 4.5 µg/mg creatinine
[2]
  Occurrence Urine LE (number of volunteers in whom the metabolite was detected): 16
  Occurrence Urine OE (number of volunteers in whom the metabolite was detected): 11
